Results on 2 molecules are retold here after patent publication US20230226049A1, “ACALABRUTINIB MALEATE DOSAGE FORMS” (Acerta Pharma B.V., priority 2020, published 2023).

≈ marks a conversion by molar mass, not a printed value. Bounds are passed on as bounds.

A short description of series [1]: physchem. As to conditions: pH 6, water.
Description: In addition, the solubility of acalabrutinib maleate was measured in buffered solutions representative of the media used for dissolution of acalabrutinib maleate tablets.
A short description of series [2]: Physicochemical properties of acalabrutinib maleate monohydrate (Table 2).
The nature of series [3]: Two-stage pH shift dissolution of acalabrutinib salts. The format is physicochemical. As to conditions: pH shift method, both starting media; FIGS. 11 and 12. The method, then:
Phosphate, oxalate, and maleate salts of acalabrutinib were evaluated using a two-stage in vitro dissolution method known as a pH shift method. The initial medium was either deionized water or a simulated gastric fluid containing hydrochloric acid and sodium chloride and pH adjusted to 1.8. After the salts were in the initial medium for 30 minutes, the medium was then changed to a FaSSIF-V2 medium by addition of a double strength concentrate to give a final pH of 6.5. The FaSSIF-V2 medium contained a sodium phosphate buffer with sodium chloride, sodium taurocholate, and lecithin. The dissolution testing was conducted using USP dissolution apparatus 2 (paddle) operating at 50 RPM at 37 ± 0.5° C. in 250 mL of medium for first 30 minutes and then in 500 mL of medium post-shift. Samples from the dissolution medium were pulled from the aqueous phase at predetermined time points and assayed by HPLC. FIGS. 2 and 3 show the dissolution profiles of the three salts in the simulated gastric fluid/FaSSIF-V2 media and the deionized water/FaSSIF-V2 media, respectively.
In view of the formulation challenges associated with the physical properties of the phosphate and oxalate salts, the maleate salt was re-tested in the previously described pH shift dissolution method after undergoing particle size reduction. […]

A word on the solubility: it is the dissolved amount per volume that the medium holds. A word on the pKa: it is the negative logarithm of the acid dissociation constant. Lower therefore signals a group that gives up its proton readily. Turning to `CC#CC(=O)N1CCC[C@H]1c1nc(-c2ccc(C(=O)Nc3ccccn3)cc2)c2c(N)nccn12` [acalabrutinib free base, 4-{8-amino-3-[(2S)-1-(but-2-ynoyl)pyrrolidin-2-yl]imidazo[1,5-a]pyrazin-1-yl}-N-(pyridin-2-yl)benzamide], the solubility was below 100 µg/mL in series [1] and 48 µg/mL (≈ 103 µM) in series [2] (aqueous buffer, @ pH 8 Free Base, read-out: Intrinsic solubility). This molecule also displayed a pKa in series [2] (acidic) of 12.1.
As for `CC#CC(=O)N1CCC[C@H]1c1nc(-c2ccc(C(=O)Nc3ccccn3)cc2)c2c(N)nccn12.O=C(O)/C=C\C(=O)O` [micronized maleate salt], in series [3], the “Dissolution profile relative to unmilled maleate salt” value is “significantly improved”.
